# Measurements reported in patent US20210017607A1, “Methods of Predicting Responsiveness to Cancer Therapies” (The University of Chicago, priority 2019, published 2021).
# Columns and labels:
# [1] = test system: B6-Myc (STING^hi) cancer cells; test: IFNβ1 ELISA of supernatants after DMXAA treatment; type: cell-based, mouse; conditions: 36 hours
# Procedure: (§1) FIGS. 15A-15E. Differential STING pathway activation within B6-Myc (STING^hi) cell lines and BMDMs relative to Myc-CAP (STING^lo) cells. (15A, 15B) The indicated cancer cell lines and BMDMs were treated with DMXAA (mouse STING agonist) for 1 and 24 hours, respectively, and protein extracts were interrogated for cGAS/STING pathway activation with the indicated antibodies by Western blotting. Supernatants were collected from for IFNβ1 ELISA following 36 hours of treatment with DMXAA (15C, 15D). (15E) Syngeneic Myc-CAP (STING^lo) tumors were processed into single cell suspensions and used for phycoerythrin-based sorting of CD45+ cellular fractions. Equal numbers of cells from these fractions were stimulated with DMXAA. Supernatants were collected at 36 hrs for detection of IFNB1 by ELISA; n=3 independent experiments; Significance/p-values were calculated by one-way Anova (for 15C & 15E) or paired t-test (for 15D); TAM=tumor associated macrophage; s.e.=short exposure; l.e.=long exposure.
# Cancer Cell Lines. Transgenic c-myc” prostate tumor derived cell line, Myc-CAP) (STING^lo) was obtained from ATCC and passaged in 1× DMEM (without phenol red) containing 10% fetal bovine serum, 1% penicillin-streptomycin and 2% L-glutamine. The corresponding c-myc^hi line derived from a C57BL6 generated background were grown for in vitro studies, using same culture conditions as for Myc-CAP. […]
# [2] = test system: bone marrow derived macrophages (BMDMs); test: IFNβ1 ELISA of supernatants after DMXAA treatment; type: cell-based, mouse; conditions: 36 hours
# Procedure: as §1
# Generation of BMDMs. Bone marrow derived macrophages were differentiated as previously described. […]
# [3] = test system: Myc-CAP (STING^lo) tumors; test: Myc-CAP syngeneic tumor growth; type: in vivo, mouse; conditions: immunocompetent syngeneic mice
# Procedure: FIGS. 25A and 25B. […] (25A-25B) Myc-CAP (STING^lo) tumor-bearing syngeneic mice were treated with the indicated drug(s) until untreated tumors reached approx. 2500 mm^3. Tumor volume curves for duration of treatment are shown.
# FIGS. 26A-26D. […] Immunodeficient athymic nude (26A) and NOD-SCID (26B) mice were engrafted with Myc-CAP (STING^lo) tumors and treated with the indicated drug(s) until untreated tumors reached approx. 2000 mm^3. Tumor volume curves for duration of treatment are shown. For 26A-26B, n=3-4 mice per group. (26C-26D) Single-cell suspensions were generated from harvested tumors and analyzed by flow cytometry for the indicated immune cell populations and their activation states. Data are represented relative to CD45+ immune cells. For 26C-26D, n=3-5 animals per treatment group from 2 independent experiments. Significance/p-values were calculated by […].
# FIGS. 29A-29M. […] Myc-CAP cancer cells were treated with the indicated drugs singly or in combination for 36 hours. (29A) Cells were stained with anti-mouse specific p-γH2AX antibody and a fluorescently labeled secondary antibody for determination of DNA DSBs, which were quantified by confocal microscopy. (29B) Protein extracts from cells in 29A were analyzed for the indicated pharmacodynamic biomarkers by western blotting; (29C) Annexin V-PI staining was done to assess frequency of live cells (Annexin V^− PI^−) following drug treatment. (29D) Ultracentrifugation was utilized to purify microvesicles (MVs) from supernatants in treatment groups in (29A) and associated DNA DSBs was quantified by Nanodrop®. Independent experiments n=2. (29E) Ultracentrifugation was utilized to purify MVs from supernatants in indicated treatment groups in FIG. 17A, and associated DNA DSBs were quantified by Nanodrop®; n=2 independent experiments. (29F) Syngeneic mice were engrafted with Myc-CAP (STING^lo) cells, and tumors were harvested when the tumor volume reached 400 mm^3. Single cell suspensions of the tumors were treated with the indicated drug(s), in the presence or absence of GW4869 (MV biogenesis inhibitor). (29G) Bone marrow derived macrophage (BMDMs) were co-cultured for 30 hours with supernatants (−/+ exogenous 50 units of DNase I pre-treatment for 30 minutes) from Myc-CAP cells that were treated with the indicated drug(s) for 36 hours. (29H) cGAMP (10 μg/mL) was pre-incubated with 10 units of DNAse I or mock control for 30 minutes and then added to BMDMs for 30 hours. (29I-29L) STING^+/+/STING^−/− BMDMs were co-cultured for 36 hours with supernatants from Myc-CAP and B6-Myc cancer cells that were treated with the indicated drug(s) for 36 hours. Supernatants were collected from 29F-29L at the end of treatment and analyzed for IFNβ1 by ELISA. (29M) Myc-CAP (STING^lo) tumor-bearing mice were treated with the indicated drug(s) until tumors first reached approx. 2500 mm^3. For the degerelix/rucaparib/buparlisib combination, additional cohorts of mice underwent concomitant treatment with STING antagonist H-151 or GW4869. Tumor volume was recorded daily for duration of experiment. For in vitro experiments, n=2 independent experiments and for in vivo experiments n=3-4 animals /group.
SMILES,fold induction in IFN-β levels [1],fold induction in IFN-β levels [2],tumor growth response [3]
"Cc1ccc2c(=O)c3cccc(CC(=O)O)c3oc2c1C [DMXAA, 5,6-Dimethylxanthenone-4-acetic Acid]",48.1 fold,46.4 fold,–
Nc1cc(C(F)(F)F)c(-c2cc(N3CCOCC3)nc(N3CCOCC3)n2)cn1 [buparlisib],–,–,not observed
CNCc1ccc(-c2[nH]c3cc(F)cc4c3c2CCNC4=O)cc1 [rucaparib],–,–,not observed
